Measurements reported in EP1057829A1, “Novel compounds and pharmaceutical compositions containing the same” (The Jordanian Pharmaceutical Manufacturing and Medical …, priority 1999, dated 2000).

Assays:
Type in all cases: in vivo
male rats = test: Penile erection of male rats after oral administration, observed for 2 h; details: for ED50: Rattus norvegicus, 2 h, erectile response, ED50 values significantly different with a 95% confidence interval, read-out: Calculated ED50; for responding rats # / responding rats %: 10 rats tested, penile erection monitored during 2 h
Experimental: The purpose of this study was to compare the biological activity of compound 7a with that of sildenafil. In particular, the respective ED50-value (ED=effective dose), erection episodes and penile erection indices of said compounds in the treatment of male rats were determined. The penile erection index is an established means of determining the erection promoting properties of a substance (see e.g. Ang, H.H., Sim, M.K., Pharm. Sci., 3, 117-119 (1997) and references cited therein).
In these experiments, the compounds 7a and sildenafil were administered to male rats orally. The doses used for both drugs were 0.0781, 0.1562, 0.3125 and 0.625 mg/kg body weight. Sildenafil was dissolved in distilled water, whereas 7a was dissolved in 1% HCl solution (aq). Control animals were administered with the vehicles only, i.e. distilled water or the 1% HCl solution. During the experiments, the rats were placed in glass cages for observation and had access to food and water. During 2 h after administration of the investigated compounds, the penile erection of the rats was monitored.

[1] = Preliminary toxicity studies in rats; details: rat, in vivo, read-out: tolerated dose without any detrimental effects
Experimental: (§1) Moreover, according to preliminary toxicity studies in rats, the compound 7a is tolerated up to a dose of about […] body weight without any detrimental effects. […] Thus, high doses of 7a provide a particularly efficient means for treatment of erectile dysfunction.

rats = test: Preliminary toxicity studies in rats
Experimental: as §1

Row | Structure (SMILES) | ED50 (male rats; male rats) [mg/kg] | responding rats # (male rats; dose 0.0781 mg/kg) | responding rats % (male rats; dose 0.0781 mg/kg) [%] | responding rats # (male rats; dose 0.1562 mg/kg) | responding rats % (male rats; dose 0.1562 mg/kg) [%] | responding rats # (male rats; dose 0.3125 mg/kg) | responding rats % (male rats; dose 0.3125 mg/kg) [%] | responding rats # (male rats; dose 0.6250 mg/kg) | responding rats % (male rats; dose 0.6250 mg/kg) [%] | total number of observed erection episodes (male rats; male rats, 0.0781-0.625 mg/kg, comparison with sildenafil (Fig. 1)) | calculated penile erection indices (male rats; male rats, 0.0781-0.625 mg/kg, comparison with sildenafil (Fig. 2)) | NOAEL [1] [mg/kg] | toxicity and side-effects (rats)
1 | CCCc1nn(C)c2c(=O)[nH]c(-c3cc(S(=O)(=O)N4CCN(C)CC4)cc4c3OCC4)nc12 [Compound 7a, 5-[2,3-dihydro-5-(4-methylpiperazin-1-ylsulfonyl)-7-benzofuryl]-1-methyl-3-propyl-6,7-dihydro-1H-pyrazolo[4,3-d]pyrimidin-7-one] | 0.247 | 3 | 30 | 4 | 40 | 4 | 40 | 8 | 80 | superior to sildenafil, especially at higher doses | superior to sildenafil, especially at higher doses | ~0.35 | completely nontoxic and free from undesirable side-effects
2 | CCCc1nn(C)c2c(=O)[nH]c(-c3cc(S(=O)(=O)N4CCN(C)CC4)ccc3OCC)nc12 [Sildenafil, sildenafil, reference compound] | 0.284 | 3 | 30 | 3 | 30 | 5 | 50 | 7 | 70 | – | – | – | –
